From paper PMC7334220, “Diamond Blackfan anemia is mediated by hyperactive Nemo-like kinase” (Nature Communications, 2020)

Legend:
[1] = target: T1, p38 (Homo sapiens, UniProt Q16539); assay: p38 in vitro kinase assay; format: biochemical; conditions: Supplementary Fig. 4b; read-out: observed IC50 against p38
T1 construct: endogenous in cells; host or cells: Kp53A1 cells stimulated with IL-3, IL-6, SCF and Epo; immunoprecipitated with a p38 antibody
Method: Equivalent protein was loaded between samples. b—blue Transduced progenitors were differentiated for 15 days and sorted for surface expression of CD235 + , CD41 + and CD11b + population NLK mRNA was assessed by qRT-PCR. c Control and shRPS19-transduced CB progenitors were differentiated for 10 days prior to separation into CD71^+ and CD71^- populations and assessed for pThr298-NLK phosphorylation by Western blot analysis. d—purple CB CD34 + progenitors were transduced with shRNA against luciferase (shLuc) or RPS19 (shRPS19) along with CFP-NLK and YFP-NLK and differentiated for 10 days. NLK dimerization was quantified by FRET. e—left panel NLK was immunoprecipitated from transduced differentiating CD71^+ and CD71^- populations after 10 days, and incubated in the presence of ATP, Mg^2+ and dephosphorylated NLK (i orange), c-Myb (ii—blue) and Raptor (iii—green) for 30 min at 37 °C. Phosphorylation was detected by a combination of anti^-phosphoserine-HRP and anti-phosphothreonine-HRP antibodies, or mouse anti-phosphoserine and anti-mouse-HRP antibodies. e—right panel For comparison, NLK in vitro kinase activity was assessed from CD235^+, CD41^+ and CD11b^+ populations enriched after identical treatments. f A panel of eight small molecule p38 inhibitors were titrated into in vitro kinase assays in the presence of activated NLK or p38 from stimulated Kp53A1 cells. […]

[2] = system: RPL11-insufficient cord blood CD34+ HSPCs; assay: In vitro differentiation of cord blood CD34+ HSPCs transduced with shRNA against RPL11; format: cell-based; conditions: Homo sapiens, 360 h; read-out: erythroid expansion in RPL11-insufficiency, % of control
Description: Fig. 8 NLK inhibition increases expansion of erythroid progenitors from human and murine models of DBA. a Human cord blood CD34^+ progenitors were transduced with lentivirus co-expressing GFP with shRNA against luciferase (shLuc), RPS19 (shRPS19), or RPL11 (shRPL11). […] Cells were counted and assessed for cell surface expression of CD235. b Lin-Kit^+ hematopoietic progenitors were obtained from three mouse embryos expressing tetracycline-inducible shRNA against RPS19 at day E14.5 or three untreated mice, and thee mature RPL11^+/+ or three mature RPL11^+/lox mice treated with tamoxifen for eight weeks. […] Values were expressed as a percentage relative to untreated controls. c, d Intracellular phosphorylation of NLK at Thr298 was determined by capillary electrophoresis using the Peggy Sue™ Automated Western blotting platform. After lysis, 4 µg of protein from the CD235^+ population was probed against pThr298-NLK and normalized to GAPDH. […] After counting the total cell population, the ratio of CD235^+ erythroblasts was determined by flow cytometry and number of CD235^+ erythroblasts calculated. This was expressed as a percentage of the average number of erythroid cells present in untreated healthy controls. f NLK phosphorylation was assessed by capillary electrophoresis as above. Bars represent means ± SD with individual data points overlaid. […]

T1 sequence (Q16539 2-360 limits assumed): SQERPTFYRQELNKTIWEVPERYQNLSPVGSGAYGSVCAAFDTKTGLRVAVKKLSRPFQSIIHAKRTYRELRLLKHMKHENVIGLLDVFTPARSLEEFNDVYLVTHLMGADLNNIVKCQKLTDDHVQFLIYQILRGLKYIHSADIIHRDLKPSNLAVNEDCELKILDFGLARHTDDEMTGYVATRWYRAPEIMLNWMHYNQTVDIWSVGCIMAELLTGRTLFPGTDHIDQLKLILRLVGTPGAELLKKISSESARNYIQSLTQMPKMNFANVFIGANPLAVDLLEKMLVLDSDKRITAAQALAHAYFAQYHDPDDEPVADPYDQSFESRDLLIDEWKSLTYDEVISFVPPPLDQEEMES

## Fc1ccc(Cl)cc1-c1nc(Nc2ccncc2)c2nccnc2n1 [SD208]
[1]
  IC50: 910 nM
[2]
  activity at 5 µM: 36.7%
